Like-named read-outs stand apart in the source and are kept apart here.
How the values were obtained:
[1] = drugs with known mechanisms of cell cycle regulation; cited from earlier work
MDA-MB-435 cells [2] = assay: MTT assay, continuous drug exposure for 48 hours (Table 3); type: cell-based, human; details: for IC80: MDA-MB-435, read-out: CC80
PC3 and DU145 cells = assay: Apoptosis by sub-G0/G1 population (flow cytometry); type: cell-based, human; details: IC80 dose for 72 hours
Experimental: Apoptotic cell population increased with time in PC3 and DU145 treated with SC21 and CPT.
SC21 and CPT-induced apoptosis was measured by flow cytometry (FIG. 18). SC21 at an IC80 dose for 72 hours induced 12% to 15% apoptosis as measured by calculating sub-G0/G1 population. […] An early event in apoptotic cell death is the translocation of the phosphatidyl-serine residues to the outer region of the cell membrane. This event precedes nuclear breakdown, DNA fragmentation, the appearance of most apoptosis-associated molecules, and is readily measured by annexin V binding assay. By this method, we compared SC21 with CPT.

DU145 cells = assay: Annexin V/propidium iodide apoptosis assay, DU145; type: cell-based, human; details: 72 hours exposure, IC80
Experimental: FIG. 19 illustrates apoptosis analysis of DU145 cells treated with SC21 or CPT (IC80). Cells were treated with SC21 or CPT for 24, 48, and 72 h, harvested, stained with annexin V/propidium iodide and analyzed by flow cytometry. Untreated control cells (24 and 48 h) were also included in the analysis. Annexin VFITC signals are recorded in FL1-H or […] and propidium iodide in FL2-H or […]. Cells in the bottom left quadrant (annexin V-negative, propidium iodide-negative) are viable, whereas cells in the right quadrant (annexin V-positive, propidium iodide-negative) are in the early stages of apoptosis, and the cells in the top right quadrant (annexin V-positive, propidium iodide-positive) are in later stages of apoptosis and necrosis.
To quantify drug-induced apoptosis, annexin V/propidium iodide staining was done followed by flow cytometry. […] The resulting fluorescence (FLH-1 channel for green fluorescence and FLH-2 channel for red fluorescence) was measured by flow cytometry using a FACScan flow cytometer (Becton Dickinson).
SC21 and CPT-induced apoptosis was measured by flow cytometry (FIG. 18). SC21 at an IC80 dose for 72 hours induced 12% to 15% apoptosis as measured by calculating sub-G0/G1 population. […] This event precedes nuclear breakdown, DNA fragmentation, the appearance of most apoptosis-associated molecules, and is readily measured by annexin V binding assay. […]

[3] = system: LNCaP prostate cancer cells; assay: MTT cytotoxicity assay, LNCaP; type: cell-based; details: Homo sapiens, 72 hours continuous exposure, read-out: IC50 values (mean ± SD)
Experimental: (§1) Cytotoxicity was assessed by a 3-(4,5-dimethylthiazol-2-yl)-2,5-diphenyltetrazolium bromide assay as previously described (Carmichael et al. (1987) Cancer Res. 47:936-42). Briefly, cells were seeded in 96-well microtiter plates (PC3 and DU145 at 5,000 cells/well and LNCaP at 10,000 cells/well; breast and ovarian cells at 4,000 cells/well) and allowed to attach. Cells were subsequently treated with a continuous exposure to the corresponding drug for 72 hours. A 3-(4,5-dimethylthiazol-2-yl)-2,5-diphenyltetrazolium bromide solution (at a final concentration of 0.5 mg/mL) was added to each well and cells were incubated for 4 hours at 37° C. After removal of the medium, DMSO was added and the absorbance was read at 570 nm. All assays were done in triplicate. The IC50 was then determined for each drug from a plot of log(drug concentration) versus percentage of cell kill.
(§2) Cytotoxicity was assessed by a 3-(4,5-dimethylthiazol-2-yl)-2,5-diphenyltetrazolium bromide (MTT) assay as previously described.^9 Briefly, cells were seeded in 96-well microtiter plates and allowed to attach. Cells were subsequently treated with continuous exposure to the corresponding drug for 72 h. An MTT solution (at a final concentration of 0.5 mg/mL) was added to each well, and cells were incubated for 4 h at 37° C. After removal of the medium, DMSO was added and the absorbance was read at 570 nm. All assays were done in triplicate. The IC50 was then determined for each drug from a plot of log (drug concentration) versus percentage of cells killed.

HEY ovarian cancer cells = assay: MTT cytotoxicity assay, HEY; type: cell-based, human; details: Homo sapiens; HEY; 72 hours continuous exposure; read-out: IC50 values (mean ± SD)
Experimental: (§3) The sensitivity of a panel of seven human cancer cell lines to SC144 was assessed by MTT-assay. […] The sensitivity towards SC144 was time- and dose-dependent.
as §1

[4] = system: PC3 prostate cancer cells; assay: MTT cytotoxicity assay, PC3; type: cell-based; details: Homo sapiens; PC3; 72 hours continuous exposure; read-out: IC50 values (mean ± SD)
Experimental: as §3, §1

[5] = system: DU145 prostate cancer cells; assay: MTT cytotoxicity assay, DU145; type: cell-based; details: Homo sapiens, DU-145, 72 hours continuous exposure, read-out: IC50 values (mean ± SD)
Experimental: as §3, §1

[6] = system: MCF-7 breast cancer cells; assay: MTT cytotoxicity assay, MCF-7; type: cell-based, human; details: Homo sapiens, MCF7; MCF-7; 72 hours continuous exposure; read-out: IC50 values (mean ± SD)
Experimental: as §3, §1

MDA-MB-435 cells [7] = assay: Annexin V/PI apoptosis analysis, SC144 and CPT; type: cell-based, human; details: 48 h; IC80
Description: Cells were stained with annexin V/PI and analyzed by flow cytometry. Cells in the bottom left quadrant of each panel (Annexin V-negative, PI-negative) are viable, whereas cells in the bottom right quadrant (Annexin V-positive, PI-negative) are in the early stages of apoptosis, and cells in the top right quadrant (Annexin V-positive, PI-positive) are in later stages of apoptosis and necrosis.
An early event in apoptotic cell death is the translocation of the phosphatidyl-serine residues to the outer part of the cell membrane. This event precedes nuclear breakdown, DNA fragmentation, the appearance of most apoptosis-associated molecules, and is readily measured by annexin V binding assay. By this method, SC144 was compared with CPT.

[8] = system: MDA-MB-435 breast cancer cells; assay: MTT cytotoxicity assay, MDA-MB-435; type: cell-based, human; details: Homo sapiens, 72 hours continuous exposure, read-out: IC50 values (mean ± SD)
Experimental: as §3, §1, §2

[9] = system: MDA-MB-468 breast cancer cells; assay: MTT cytotoxicity assay, MDA-MB-468; type: cell-based; details: Homo sapiens, 72 hours continuous exposure, read-out: IC50 values (mean ± SD)
Experimental: as §3, §1

CEM or HEY cells = assay: Cytotoxicity of salicylhydrazides (Table 5); type: cell-based; details: Homo sapiens
Description: Human prostate cancer cells (PC3, p53 null, AR−; DU145, p53 mutant, AR−; and LNCaP, p53 wild-type, AR+) and breast cancer cells (MCF-7, overexpressed wild-type p53, ER+; MDA-MB-468, p53 mutant, […]; and MDA-MB-435, p53 mutant, ER−) were obtained from American Type Cell Culture (Manassas, Va.). The human ovarian carcinoma cell line (HEY) naturally resistant to cisplatin (CDDP) was kindly provided by Dr. Dubeau (University of Southern California Norris Cancer Center; Buick et al. (1985) Cancer Res. 45:3668-76 and Hamaguchi et al. (1993) Cancer Res. 53:5225-32). The results with CEM cells were previously described (Neamati et al. (1998) J. Med. Chem. 41:3202-9). Cells were maintained as monolayer cultures in RPMI 1640 supplemented with 10% fetal bovine serum (Gemini-Bioproducts, Woodland, Calif.) and 2 mmol/L L-glutamine at 37° C. in a humidified atmosphere of 5% CO2. To remove the adherent cells from the flask for passaging and counting, cells were washed with PBS without calcium or magnesium, incubated with a small volume of 0.25% trypsin-EDTA solution (Sigma-Aldrich, St. Louis, Mo.) for 5 to 10 minutes, and washed with culture medium and centrifuged. All experiments were done using cells in exponential cell growth.
as §1

human CYP3A4 = human CYP3A4 (Homo sapiens, UniProt P08684); assay: Inhibition of human cDNA-expressed CYP3A4 (BFC metabolism); type: in vitro ADME; details: BFC substrate, 37° C.
Sequence of human CYP3A4 (P08684 whole entry): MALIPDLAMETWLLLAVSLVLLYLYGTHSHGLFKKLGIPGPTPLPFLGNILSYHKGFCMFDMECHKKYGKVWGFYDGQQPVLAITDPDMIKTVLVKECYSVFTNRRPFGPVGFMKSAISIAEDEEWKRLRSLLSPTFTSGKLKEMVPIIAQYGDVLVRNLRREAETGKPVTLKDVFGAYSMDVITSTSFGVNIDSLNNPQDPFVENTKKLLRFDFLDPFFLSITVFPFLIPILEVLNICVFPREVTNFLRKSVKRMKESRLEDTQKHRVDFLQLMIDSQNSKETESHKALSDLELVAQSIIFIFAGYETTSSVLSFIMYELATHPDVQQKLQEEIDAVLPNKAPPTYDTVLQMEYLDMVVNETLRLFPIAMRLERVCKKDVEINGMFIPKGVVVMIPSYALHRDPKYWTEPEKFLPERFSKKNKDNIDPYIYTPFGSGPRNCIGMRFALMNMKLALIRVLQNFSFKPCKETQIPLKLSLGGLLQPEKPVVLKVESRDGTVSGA
Experimental: The metabolism of fluorescent substrates by human cDNA-expressed CYP3A4 was assessed by incubation in 96 well plate at 37° C. Metabolism of 7-benzyloxy-4-trifluoromethylcoumarin (BFC) was assayed by measuring the production of the corresponding 7-hydroxy-4-trifluoro-methylcoumarin.
The investigation of cytochrome P450 enzyme inhibition by potential drug candidates can aid in predicting drug-drug interactions and/or unfavorable PK profiles produced upon dosing.

Row | SMILES | Cell cycle profile [1] | CC50 (MDA-MB-435 cells [2]; Homo sapiens, MDA-MB-435) [µM] | IC80 (MDA-MB-435 cells [2]; Homo sapiens) [µM] | apoptosis (sub-G0/G1 population) (PC3 and DU145 cells) [%] | early plus late apoptotic cells (DU145 cells) [%] | IC50 [3] [µM] | IC50 (HEY ovarian cancer cells) [µM] | IC50 [4] [µM] | IC50 [5] [µM] | IC50 [6] [µM] | early-apoptotic cells (MDA-MB-435 cells [7]) [%] | late-apoptosis/necrosis (MDA-MB-435 cells [7]) [%] | IC50 [8] [µM] | IC50 [9] [µM] | IC50 (CEM or HEY cells) [µM] | inhibition of CYP3A4 activity (human CYP3A4) | CC50 (MDA-MB-435 cells [2]) [µM]
1 | O=c1[nH]cc(F)c(=O)[nH]1 [5-Fluorouracil] | S-phase | 29 ± 10.7 | 100 ± 0.01 |  |  |  |  |  |  |  |  |  |  |  |  |  | 
2 | CC[C@@]1(O)C(=O)OCc2c1cc1n(c2=O)Cc2cc3ccccc3nc2-1 [CPT, Camptothecin, reference compound] |  | 0.03 ± 0.002 | 0.1 ± 0.002 | 30 | 59 | 0.025 ± 0.006 | 0.035 ± 0.007 | 0.9 ± 0.21 | 0.025 ± 0.007 | 0.03 ± 0.003 | 34 | 39 | 0.027 ± 0.002 | 0.1 ± 0.002 |  |  | 
3 | C=C/C=C(\C(=C)O)C(=O)N1N=C(C)/C(=C\c2cccc(O)c2)C1=O [SC24] |  |  | 0.97 |  |  |  |  |  |  |  |  |  |  |  | 0.13 | does not significantly inhibit CYP3A4 activity | 0.24 ± 0.03
